Reference: US20260174769A1, “MACROCYCLIC COMPOUNDS AND METHODS OF USE” (AMGEN INC., priority 2022, published 2026)
Where two headings read alike, the source gives them in different places. Each block holds one compound with its values, some of them ahead of it.

Legend:
[1] = 16-membered ring
[2] = 16-membered ring; remark: listed apart in the source
[3] = test system: MIA PaCa-2 cells; assay: MIA PaCa-2 CTG Assay (CellTiter-Glo cell viability, 72 h); assay type: cell-based, human; settings: second value of cell, read-out: G12D/C/V Cell Proliferation CTG (72 h) Mia PaCa-2
Experimental: MIA PaCa-2 CTG Assay Protocol
(§1) Serially-diluted compound or DMSO was added to the cells, and plates were incubated at 37° C., 5% CO2 for 72 h. Cell viability was measured using a CellTiter-Glo® Luminescent Cell Viability Assay kit (Promega) according to the manufacturer's protocol. The luminescence signal of treated samples was normalized to DMSO control, and data were analyzed using a 4-parameter logistic model to calculate IC50 values.

[4] = molecular target: His-tagged KRAS G12D protein (Homo sapiens, UniProt P01116, G12D); assay: KRAS G12D TR-FRET Assay; assay type: binding
Chain of His-tagged KRAS G12D protein (P01116 1-188 isoform P01116-2 G12D): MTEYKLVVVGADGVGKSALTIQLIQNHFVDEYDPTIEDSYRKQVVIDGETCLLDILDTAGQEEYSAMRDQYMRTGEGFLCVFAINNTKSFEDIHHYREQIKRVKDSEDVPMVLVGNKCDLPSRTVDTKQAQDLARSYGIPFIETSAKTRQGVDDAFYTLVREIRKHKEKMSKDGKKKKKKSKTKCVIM
Summary of the method: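 GDP-loaded His-KRAS G12D (20 nM in HEPES pH 7.4, MgCl2, NaCl, BSA, Tween-20, 10 μM GDP) preincubated with compound 30 min at room temperature, then 20 nM biotinylated KRPep-2d peptide added for 1 h. TR-FRET detection used Eu anti-His and streptavidin-d2, read after 1 h.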

[5] = molecular target: GDP-bound KRAS protein (aa 1-169), containing both G12D and C118A amino acid substitutions (Homo sapiens, UniProt P01116, C118A/G12D); assay: KRAS G12D Coupled Nucleotide Exchange Assay; assay type: biochemical
Chain of GDP-bound KRAS protein (aa 1-169), containing both G12D and C118A amino acid substitutions (P01116 1-169 isoform P01116-2 G12D/C118A): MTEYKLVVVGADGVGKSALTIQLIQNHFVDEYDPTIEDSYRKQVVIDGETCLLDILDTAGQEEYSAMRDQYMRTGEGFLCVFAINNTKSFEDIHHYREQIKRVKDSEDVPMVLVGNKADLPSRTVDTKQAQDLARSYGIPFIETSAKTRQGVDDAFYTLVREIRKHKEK
Experimental: KRAS G12D Coupled Nucleotide Exchange Assay
The assay plates were then read on a PerkinElmer En Vision Multilabel Reader, using AlphaScreen® technology, and data were analyzed using a 4-parameter logistic model to calculate IC50 values.

[6] = test system: Phosphorylation of ERK1/2 in AsPC-1 cells; assay: Phospho-ERK1/2 MSD Assay; assay type: cell-based, human; settings: read-out: 2 h p-ERK (AsPC-1 cells), IC50
Experimental: Sixteen hours prior to compound treatment, AsPC-1 cells were seeded in 96-well cell culture plates at a density of 25,000 cells/well and incubated at 37° C., 5% CO2. A compound dose-response titration was diluted in growth media, added to appropriate wells of a cell culture plate, and then incubated at 37° C., 5% CO2 for 2 hours. […] Phosphorylation of ERK1/2 in compound-treated lysates was assayed using Phospho-ERK 1/2 Whole Cell Lysate kits (Meso Scale Discovery K151DWD) according to the manufacturer's protocol. Assay plates were read on a Meso Scale Discovery Sector Imager 6000, and data were analyzed using a 4-parameter logistic model to calculate IC50 values.

[7] = test system: AsPC-1 cells; assay: AsPC-1 CTG Assay (CellTiter-Glo cell viability, 72 h); assay type: cell-based, human; settings: read-out: G12D/C/V Cell Proliferation CTG (72 h) AsPC-1
Experimental: AsPC-1 and SW620 CTG Assay Protocols
as §1

[8] = test system: phospho-ERK1/2 in PANC 04.03 tumors; assay: Tumor Pharmacodynamic Assay (p-ERK inhibition in PANC 04.03 tumor-bearing mice); assay type: in vivo; settings: PANC 04.03 tumor-bearing female athymic nude mice; single oral dose 100 mg/kg; tumors harvested 2 hours later; p-ERK1/2 normalized to total ERK1/2, relative to vehicle group
Experimental: Tumor Pharmacodynamic Assays
Inhibitor pharmacodynamic effects were assessed in PANC 04.03 tumor-bearing mice. PANC 04.03 tumor cells (5.0E+06 cells) were injected subcutaneously into the flank of female athymic nude mice in a mixture with Matrigel (BD Bioscience). Mice received a single oral dose of either vehicle or inhibitors (100 mg/kg) when the average tumor size reached ˜300-600 mm^3 (n=3/group) and harvested 2 hours later. Tumor samples were collected, snap frozen, and processed for analysis by pulverizing with a cryoPREP® Dry Impactor (Covaris). Pulverized samples were resuspended in RIPA lysis buffer containing protease and phosphatase inhibitors and homogenized. Cleared lysates were analyzed using phospho-ERK1/2 and total ERK1/2 whole cell lysate kits (Meso Scale Discovery) according to the manufacturer's protocol. Phospho-ERK1/2 signal was normalized to total ERK1/2 signal for a given sample, and percent inhibition of p-ERK was calculated relative to the vehicle group.

[9] = 2 hours compound pre-incubation, SOS-mediated nucleotide exchange
[10] = Homo sapiens, ASPC1, 2 h, AsPC-1 cells, 2 h compound treatment
[11] = Homo sapiens, ASPC1, 72 h, AsPC-1 cells, 72 h, first value of cell

Compound: CN1C(=O)CCCCc2c(Cl)cc3[nH]ncc3c2-c2cc3nc(OC[C@@]45CCCN4C[C@H](F)C5)nc(c3nn2)N2CCC[C@@H]1C2
- ring closure, yield after HPLC ([1]; from CN[C@@H]1CCCN(c2nc(OC[C@@]34CCCN3C[C@H](F)C4)nc3cc(-c4c(CCCCC(=O)O)c(Cl)cc5[nH]ncc45)nnc23)C1, amide bond, EDCI/HOBt/DIEA, DCM, 10.3 mM, 25.0 °C, 36.0 h, 3 steps): 20%

Compound: CN1C(=O)OCCCc2c(Cl)cc3[nH]ncc3c2-c2ncc3c(nc(OC[C@@]45CCCN4C[C@H](F)C5)nc3c2F)N2CCC[C@@H]1C2
- ring closure, yield after HPLC ([1]; from CN(C(=O)OCCCc1c(Cl)cc2[nH]ncc2c1-c1ncc2c(O)nc(OC[C@@]34CCCN3C[C@H](F)C4)nc2c1F)[C@@H]1CCCNC1, snar bond, PyBroP/DIEA, MeCN/DMSO, 11.7 mM, 25.0 °C, 2 steps): 14%

Compound: CSc1nc2c3cnc(c(C)c3n1)-c1cc(O)cc3ccc(F)c(c13)CCCC(=O)N[C@]1(C)CCCN2C1
- ring closure, yield after HPLC ([1]; from CSc1nc(N2CCC[C@@](C)(N)C2)c2cnc(-c3cc(O)cc4ccc(F)c(CCCC(=O)O)c34)c(C)c2n1, amide bond, HATU, then Me2NH, DCM/DMA/DMF, 5.6 mM, 25.0 °C): 32%

Compound: Cc1cc2[nH]ncc2c(-c2ncc3c(O)nc(OC[C@@]45CCCN4C[C@H](F)C5)nc3c2F)c1CCOC(=O)OC[C@@H]1CCCNC1
- ring closure, yield after HPLC ([1]; the molecule shown is the open-chain precursor, snar bond): 20%

Compound: Cc1cc2c(cnn2C2CCCCO2)c2c1CCCCC(=O)N[C@@H]1CCCN(C1)c1nc(OC[C@@]34CCCN3C[C@H](F)C4)nc3c(F)c-2ncc13 (some centres unmarked)
- ring closure, isolated yield ([2]; from Cc1cc2c(cnn2C2CCCCO2)c(-c2ncc3c(N4CCC[C@@H](N)C4)nc(OC[C@@]45CCCN4C[C@H](F)C5)nc3c2F)c1CCCCC(=O)O, amide bond, HATU/DIEA, DMA, 4.7 mM, 25.0 °C, 1.5 h): 22%

Compound: Cc1cc2c(cnn2C2CCCCO2)c2c1CCCn1ncc(n1)C1CCCN(C1)c1nc(OC[C@@]34CCCN3C[C@H](F)C4)nc3c(F)c-2ncc13 (some centres unmarked)
- ring closure, isolated yield ([2]; from Cc1cc2c(cnn2C2CCCCO2)c(-c2ncc3c(N4CCCC(c5cn[nH]n5)C4)nc(OC[C@@]45CCCN4C[C@H](F)C5)nc3c2F)c1CCCCl, other bond, K2CO3/TBAI, MeCN, 6.9 mM, 85.0 °C, 3.0 h): 31%

Compound: O=C1CCCc2c(F)ccc3cccc(c23)-c2ncc3c(nc(OC[C@@]45CCCN4C[C@H](F)C5)nc3c2F)N2CCC[C@H](C2)N1
- ring closure, yield after HPLC ([1]; from N[C@@H]1CCCN(c2nc(OC[C@@]34CCCN3C[C@H](F)C4)nc3c(F)c(-c4cccc5ccc(F)c(CCCC(=O)O)c45)ncc23)C1, amide bond, HATU/DIEA, DMF, 5.9 mM, 0.5 h, 2 steps): 30%

- IC50 ([3]; Homo sapiens): 90 nM
Compound: C[C@@]12CCCCN(C1)c1nc(OC[C@@]34CCCN3C[C@H](F)C4)nc3c(F)c(ncc13)-c1c(c(Cl)cc3[nH]ncc13)CCCC(F)C(=O)N2 (mixture of isomers) [Example 281, (23RS,26R)-18-chloro-23,32-difluoro-4-(((2R,7aS)-2-fluorotetrahydro-1H-pyrrolo[1,2-a]pyrrol-7a(5H)-yl)methoxy)-26-methyl-1,3,5,9,14,15,25-heptaazahexacyclo[24.4.1.1~6,10~.0~2,7~.0~11,19~.0~12,16~]dotriaconta-2,4,6,8,10(32),11,13,16,18-nonaen-24-one]

- IC50 ([4]; TR-FRET binding): 4 nM
- IC50 [5, 9]: 2 nM
- IC50 [6, 10]: 13 nM
- IC50 [7, 11]: 92 nM
Compound: C[C@@]12CCCN(C1)c1nc(OC[C@@]34CCCN3C[C@H](F)C4)nc3c(F)c(ncc13)-c1cc(O)cc3ccc(F)c(c13)CCCC(=O)O2 [Example 43, (15R)-22,31-Difluoro-8-(((2R,7aS)-2-fluorotetrahydro-1H-pyrrolo[1,2-a]pyrrol-7a(5H)-yl)methoxy)-27-hydroxy-15-methyl-16-oxa-3,7,9,11-tetraazahexacyclo[19.7.1.1˜2,6˜.1˜11,15˜.0˜5,10˜.0˜25,29˜]hentriaconta-1(28),2(31),3,5,7,9,21,23,25(29),26-decaen-17-one bis(2,2,2-trifluoroacetate)]

- IC50 ([4]; TR-FRET binding): 4 nM
- IC50 [5, 9]: 2 nM
- IC50 [6, 10]: 27 nM
- IC50 [7, 11]: 280 nM
Compound: CC1COC(=O)C[C@@H]2CCCN(C2)c2nc(OC[C@@]34CCCN3C[C@H](F)C4)nc3c(F)c(ncc23)-c2c(c(Cl)cc3[nH]ncc23)C1 (some centres unmarked) [Example 91]

Compound: O=C1COCCCc2c(Cl)cc3[nH]ncc3c2-c2ncc3c(nc(OC[C@@]45CCCN4C[C@H](F)C5)nc3c2F)N2CC[C@H]3CCN1[C@H]3C2 [Example 168]
- IC50 [6]: 1.3 nM
- IC50 [7]: 10 nM
- p-ERK (% inhibition) 2 hr. [8]: 65%

- IC50 ([4]; TR-FRET binding): 4 nM
- IC50 [5, 9]: 2 nM
- IC50 [6, 10]: 11.8 nM
- IC50 [7, 11]: 120 nM
Compound: C[C@@]12COCCN(C1)c1nc(OC[C@@]34CCCN3C[C@H](F)C4)nc3c(F)c(ncc13)-c1c(c(F)cc3[nH]ncc13)CCCOC(=O)O2 [Example 184, (26S)-18,32-difluoro-4-(((2R,7aS)-2-fluorotetrahydro-1H-pyrrolo[1,2-a]pyrrol-7a(5H)-yl)methoxy)-26-methyl-23,25,28-trioxa-1,3,5,9,14,15-hexaazahexacyclo[24.4.1.1~6,10~.0~2,7~.0~11,19~.0~12,16~]dotriaconta-2,4,6,8,10(32),11,13,16,18-nonaen-24-one]

Compound: Cc1cc2[nH]ncc2c2c1CCCCOCC1CN(CCC1(F)F)c1nc(OC[C@@]34CCCN3C[C@H](F)C4)nc3c(F)c-2ncc13 (stereo partly drawn) [Example 227, (17R)-18,18,30-trifluoro-24-(((2R,7aS)-2-fluorotetrahydro-1H-pyrrolo[1,2-α]pyrrol-7a(SH)-yl)methoxy)-9-methyl-15-oxa-5,6,21.23,25,29-hexaazahexacyclo[24.3.1.1~17,21~.0~2,10~.0~3.7~.0~22,27~]hentriaconta-1(30),2,4,7,9,22,24,26,28-nonaene]
- IC50 ([4]; read-out: KRAS G12D Binding IC50): 35 nM
- IC50 [5]: 12 nM
- IC50 [6]: 611 nM
- IC50 [7]: 3910 nM

- IC50 ([6]; AsPC-1 cells, 2 h compound treatment): 7.8 nM
- IC50 ([7]; AsPC-1 cells, 72 h, first value of cell): 13 nM
- IC50 [3]: 7 nM
Compound: O=C1OCCc2c(Cl)cc3[nH]ncc3c2-c2ncc3c(nc(OC[C@@]45CCCN4C[C@H](F)C5)nc3c2F)N2CCO[C@]3(C2)C[C@H](C3)O1 [Example 248, (1R.3R)-10-chloro-32-fluoro-24-(((2R,7aS)-2-fluorotetrahydro-1H-pyrrolo[1,2-α]pyrrol-7a(SH)-yl)methoxy)-4,6,30-trioxa-1.3,14,19,23,25,27-hexaazaheptacyclo[25.3.1.1~1,3~.1~18,22~.0~9.17~.0~12,16~.0~21,26~]tritriaconta-9,11,14,16,18(32),19,21,23,25-nonaen-5-one]
- p-ERK (% inhibition) 2 hr. [8]: 85%

- IC50 ([4]; TR-FRET binding): 7 nM
- IC50 [6, 10]: 123 nM
- IC50 [7, 11]: 606 nM
- IC50 ([3]; Homo sapiens): 675 nM
Compound: O=C1COCCc2c(Cl)cc3[nH]ncc3c2-c2ncc3c(nc(OC[C@@]45CCCN4C[C@H](F)C5)nc3c2F)N2CC[C@H]3CCN1[C@H]3C2 [Example 270]
